Values of other authors in US20060063833A1, “Ready-to-use oxaliplatin solutions” (priority 2004, published 2006).

Key:
[1] = at least at concentrations below 1 mg/ml

## O=C1[O][Pt-2]2([NH2+]C3CCCC[C@H]3[NH2+]2)[O]C1=O (stereo partly drawn) [Oxaliplatin, cis-oxalato-(trans-1,2-cyclohexanediamine)-platinum(II)]
[1]
  stability in water: not very stable
ethanol
  solubility in ethanol: practically insoluble
methanol
  solubility in methanol: scarcely soluble
water
  solubility in water: soluble
